Data from PubChem BioAssay (NCI).
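Step 1: Grow cells in 96-well plates. Step 2: Expose to compound for 48 hours at 5 concentrations. Step 3: Interpolate endpoints linearly; if unreached, use highest concentration. At the GI50, growth is halved. TGI is the concentration that stops growth completely.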

Experiments:
Assay in all cases: inhibition of tumour cell growth, NCI panel, 48 h
786-0 renal = tested on: 786-0 renal
A498 renal = tested on: A498 renal
A549 NSCLC = tested on: A549 NSCLC
ACHN renal = tested on: ACHN renal
BT-549 breast = tested on: BT-549 breast
CCRF-CEM leukemia = tested on: CCRF-CEM leukemia
DU-145 prostate = tested on: DU-145 prostate
EKVX NSCLC = tested on: EKVX NSCLC
HCC-2998 colon = tested on: HCC-2998 colon
HCT-15 colon = tested on: HCT-15 colon
HL-60(TB) leukemia = tested on: HL-60(TB) leukemia
HOP-62 NSCLC = tested on: HOP-62 NSCLC
HT29 colon = tested on: HT29 colon
IGROV1 ovarian = tested on: IGROV1 ovarian
K-562 leukemia = tested on: K-562 leukemia
KM12 colon = tested on: KM12 colon
MALME-3M melanoma = tested on: MALME-3M melanoma
MDA-MB-231 breast = tested on: MDA-MB-231 breast
MOLT-4 leukemia = tested on: MOLT-4 leukemia
NCI-H226 lung = tested on: NCI-H226 lung
NCI-H23 lung = tested on: NCI-H23 lung
NCI-H460 lung = tested on: NCI-H460 lung
NCI-H522 lung = tested on: NCI-H522 lung
NCI/ADR-RES ovarian = tested on: NCI/ADR-RES ovarian
OVCAR-5 ovarian = tested on: OVCAR-5 ovarian
OVCAR-8 ovarian = tested on: OVCAR-8 ovarian
PC-3 prostate = tested on: PC-3 prostate
RPMI-8226 leukemia = tested on: RPMI-8226 leukemia
SF-268 CNS = tested on: SF-268 CNS
SF-539 CNS = tested on: SF-539 CNS
SK-MEL-2 melanoma = tested on: SK-MEL-2 melanoma
SK-MEL-28 melanoma = tested on: SK-MEL-28 melanoma
SK-MEL-5 melanoma = tested on: SK-MEL-5 melanoma
SK-OV-3 ovarian = tested on: SK-OV-3 ovarian
SN12C renal = tested on: SN12C renal
SNB-75 CNS = tested on: SNB-75 CNS
SR leukemia = tested on: SR leukemia
SW-620 colon = tested on: SW-620 colon
T-47D breast = tested on: T-47D breast
TK-10 renal = tested on: TK-10 renal
U251 CNS = tested on: U251 CNS
UACC-257 melanoma = tested on: UACC-257 melanoma
UACC-62 melanoma = tested on: UACC-62 melanoma
UO-31 renal = tested on: UO-31 renal

What does the source list for `Nc1cc(N)c2nc(-c3ccccc3)c(NCCc3ccc(Cl)c(Cl)c3)nc2c1`?
GI50 (786-0 renal): 3.13 µM; TGI (786-0 renal): 21.1 µM; GI50 (A498 renal): 11.3 µM; TGI (A498 renal): 23.4 µM; GI50 (A549 NSCLC): 12.6 µM; TGI (A549 NSCLC): 33.1 µM; GI50 (ACHN renal): 3.31 µM; TGI (ACHN renal): 12.4 µM; GI50 (BT-549 breast): 1.56 µM; TGI (BT-549 breast): 13.8 µM; GI50 (CCRF-CEM leukemia): 2.77 µM; TGI (CCRF-CEM leukemia): 12.3 µM; GI50 (DU-145 prostate): 1.63 µM; TGI (DU-145 prostate): 3.63 µM; GI50 (EKVX NSCLC): 3.16 µM; TGI (EKVX NSCLC): 16.2 µM; GI50 (HCC-2998 colon): 5.78 µM; TGI (HCC-2998 colon): 19.7 µM; GI50 (HCT-15 colon): 4.64 µM; TGI (HCT-15 colon): 20 µM; GI50 (HL-60(TB) leukemia): 2.07 µM; TGI (HL-60(TB) leukemia): 5.27 µM; GI50 (HOP-62 NSCLC): 3.92 µM; TGI (HOP-62 NSCLC): 39.8 µM; GI50 (HT29 colon): 3.4 µM; TGI (HT29 colon): 13.2 µM; GI50 (IGROV1 ovarian): 3.38 µM; TGI (IGROV1 ovarian): 15.9 µM; GI50 (K-562 leukemia): 1.87 µM; TGI (K-562 leukemia): 5.29 µM; GI50 (KM12 colon): 2.63 µM; TGI (KM12 colon): 10.5 µM; GI50 (MALME-3M melanoma): 1.85 µM; TGI (MALME-3M melanoma): 4.5 µM; GI50 (MDA-MB-231 breast): 1.3 µM; TGI (MDA-MB-231 breast): 3.89 µM; GI50 (MOLT-4 leukemia): 1.14 µM; TGI (MOLT-4 leukemia): 9.32 µM; GI50 (NCI-H226 lung): 16.5 µM; TGI (NCI-H226 lung): 33.3 µM; GI50 (NCI-H23 lung): 2.81 µM; TGI (NCI-H23 lung): 13.3 µM; GI50 (NCI-H460 lung): 3.21 µM; TGI (NCI-H460 lung): 14.1 µM; GI50 (NCI-H522 lung): 2.11 µM; TGI (NCI-H522 lung): 4.98 µM; GI50 (NCI/ADR-RES ovarian): 3.62 µM; TGI (NCI/ADR-RES ovarian): 18.8 µM; GI50 (OVCAR-5 ovarian): 1.81 µM; TGI (OVCAR-5 ovarian): 4.75 µM; GI50 (OVCAR-8 ovarian): 2.41 µM; TGI (OVCAR-8 ovarian): 6.02 µM; GI50 (PC-3 prostate): 1.01 µM; TGI (PC-3 prostate): 4.29 µM; GI50 (RPMI-8226 leukemia): 0.924 µM; TGI (RPMI-8226 leukemia): 2.91 µM; GI50 (SF-268 CNS): 2.85 µM; TGI (SF-268 CNS): 12.9 µM; GI50 (SF-539 CNS): 2.22 µM; TGI (SF-539 CNS): 10.9 µM; GI50 (SK-MEL-2 melanoma): 10.3 µM; TGI (SK-MEL-2 melanoma): 22.4 µM; GI50 (SK-MEL-28 melanoma): 2.13 µM; TGI (SK-MEL-28 melanoma): 5.88 µM; GI50 (SK-MEL-5 melanoma): 2.32 µM; TGI (SK-MEL-5 melanoma): 7.52 µM; GI50 (SK-OV-3 ovarian): 12.3 µM; TGI (SK-OV-3 ovarian): 24.7 µM; GI50 (SN12C renal): 1.75 µM; TGI (SN12C renal): 3.37 µM; GI50 (SNB-75 CNS): 6.18 µM; TGI (SNB-75 CNS): 33.4 µM; GI50 (SR leukemia): 1.66 µM; TGI (SR leukemia): 7.61 µM; GI50 (SW-620 colon): 1.64 µM; TGI (SW-620 colon): 2.99 µM; GI50 (T-47D breast): 1.8 µM; TGI (T-47D breast): 5.94 µM; GI50 (TK-10 renal): 4.78 µM; TGI (TK-10 renal): 17.5 µM; GI50 (U251 CNS): 2.03 µM; TGI (U251 CNS): 5.32 µM; GI50 (UACC-257 melanoma): 2.06 µM; TGI (UACC-257 melanoma): 4.52 µM; GI50 (UACC-62 melanoma): 2.5 µM; TGI (UACC-62 melanoma): 7.97 µM; GI50 (UO-31 renal): 1.93 µM; TGI (UO-31 renal): 3.97 µM
